Results from the Deep4Chem optical property database.
Each block holds one molecule with its values, some of them ahead of it.

Assay: photoluminescence quantum yield (fraction); solvent given as SMILES

SMILES: CC1=[N+]2C(=C(c3cccs3)c3ccc(C)n3[B-]2(F)F)C=C1c1cc2n(c1)[B-](F)(F)[N+]1=CC=CC1=C2c1c(C)cc(C)cc1C
- photoluminescence quantum yield (in C1CCCCC1): 0.62
- photoluminescence quantum yield (in CCOC(C)=O): 0.12

SMILES: Cn1nc(-c2ccccc2)c2n[nH]nc2/c1=N\c1ccccn1
- photoluminescence quantum yield (in CC#N): 0.05
- photoluminescence quantum yield (in CCO): 0.06
- photoluminescence quantum yield (in Cc1ccccc1): 0.07

SMILES: F[B-]1(F)n2c(c(-c3ccccc3)c(-c3ccccc3)c2-c2ccccc2)C(c2ccccc2)=C2C(c3ccccc3)=C(c3ccccc3)C(c3ccccc3)=[N+]21
- photoluminescence quantum yield (in C1CCOC1): 0.2

SMILES: N#Cc1ccc(/C=C2\N=C(c3ccccc3)NC2=O)cc1
- photoluminescence quantum yield (in C1COCCO1): 0.158

SMILES: Cc1cc(C)n2c1C=[N+]1[N+](=C3C=NC=CN3[B-]1(F)F)[B-]2(F)F
- photoluminescence quantum yield (in ClCCl): 0.57

SMILES: COc1cc2c(cc1-c1ccccc1)Cc1c3c(c4c(c1-2)-c1cc(OC)c(-c2ccccc2)cc1C4)C(=O)N(CCC(C)C)C3=O
- photoluminescence quantum yield (in C1CCOC1): 0.53
- photoluminescence quantum yield (in CC#N): 0.46
- photoluminescence quantum yield (in CC(C)=O): 0.38
- photoluminescence quantum yield (in CCOC(C)=O): 0.61
- photoluminescence quantum yield (in CS(C)=O): 0.47
- photoluminescence quantum yield (in Cc1ccccc1): 0.48
- photoluminescence quantum yield (in ClC(Cl)Cl): 0.64
- photoluminescence quantum yield (in ClCCl): 0.63

SMILES: CC(C)(C)c1ccc2oc3nc4oc5ccc(N(c6ccccc6)c6ccccc6)cc5c4cc3c2c1
- photoluminescence quantum yield (in ClC(Cl)Cl): 0.083

SMILES: C[Si](C)(C)c1cc2c(cc3ccc4cccc5ccc2c3c45)[nH]1
- photoluminescence quantum yield (in CCOC(C)=O): 0.95

SMILES: COc1cc(-c2ncc(-c3ccncc3)o2)cc(OC)c1OC
- photoluminescence quantum yield (in ClCCl): 0.54

SMILES: COc1ccc(-c2[nH]c(=O)n3c2-c2ccccc2C3=O)c(OC)c1
- photoluminescence quantum yield (in CC#N): 0.48
- photoluminescence quantum yield (in CO): 0.39
- photoluminescence quantum yield (in ClCCl): 0.57

SMILES: N#Cc1c(-n2c3ccc(-c4ccccc4)cc3c3cc(-c4ccccc4)ccc32)c(-n2c3ccccc3c3ccccc32)c(-n2c3ccc(-c4ccccc4)cc3c3cc(-c4ccccc4)ccc32)c(-n2c3ccccc3c3ccccc32)c1-n1c2ccc(-c3ccccc3)cc2c2cc(-c3ccccc3)ccc21
- photoluminescence quantum yield (in Cc1ccccc1): 0.83

SMILES: C#CCn1c2ccccc2c2cc(/C=C/c3c(Cl)c(C)c4n3[B-](F)(F)[N+]3=C(C)C(Cl)=C(C)C3=C4c3ccc(I)cc3)ccc21
- photoluminescence quantum yield (in CC#N): 0.43
- photoluminescence quantum yield (in CS(C)=O): 0.33
- photoluminescence quantum yield (in ClC(Cl)Cl): 0.62

SMILES: COc1ccc(C#Cc2cc3ccccc3oc2=O)cc1
- photoluminescence quantum yield (in CC#N): 0.55

SMILES: c1ccc2c(-c3c4ccccc4c(-c4ccc(-c5ccc(-n6c7ccccc7c7ccccc76)cc5)cc4)c4ccccc34)cccc2c1
- photoluminescence quantum yield (in ClCCl): 0.7

SMILES: Cc1cccc2nc(-c3ccc(-c4cc(=O)cc(-c5ccccc5)o4)cc3)c(NC3CCCCC3)n12
- photoluminescence quantum yield (in ClCCl): 0.032

SMILES: c1ccc2c(-n3c4ccccc4c4ccccc43)cccc2c1
- photoluminescence quantum yield (in C1CCCCC1): 0.54
- photoluminescence quantum yield (in CCOC(C)=O): 0.51
- photoluminescence quantum yield (in CO): 0.36

SMILES: c1ccc2c(c1)[nH]c1ccccc12
- photoluminescence quantum yield (in CC#N): 0.62
- photoluminescence quantum yield (in CCCCCC): 0.53
- photoluminescence quantum yield (in CCO): 0.44

SMILES: c1ccc(-c2nc(-c3ccccc3)nc(-c3ccc(-n4c5ccc(-n6c7ccccc7c7ccccc76)cc5c5cc(-n6c7ccccc7c7ccccc76)ccc54)cc3)n2)cc1
- photoluminescence quantum yield (in Cc1ccccc1): 0.57

SMILES: COc1c2ccccc2c(OC)c2c1c1cc(F)ccc1n2C
- photoluminescence quantum yield (in C1CCCCC1): 0.39
- photoluminescence quantum yield (in CC#N): 0.34
- photoluminescence quantum yield (in CO): 0.33
- photoluminescence quantum yield (in ClCCl): 0.37

SMILES: CCN(CC)c1c2ccc(=[N+]3CCCCC3)cc-2oc2cc(N3CCCCC3)ccc12
- photoluminescence quantum yield (in ClCCl): 0.11

SMILES: Clc1nc(Cl)nc(Nc2cc3ccc4cccc5ccc(c2)c3c45)n1
- photoluminescence quantum yield (in CC#N): 0
- photoluminescence quantum yield (in CCCCOCCCC): 0.06
- photoluminescence quantum yield (in CO): 0

SMILES: CCCCc1ccc2c(c1)c1ccc3cccc4c3c1c1c2c2cccc3ccc5c6cc(CCCC)ccc6c4c1c5c32
- photoluminescence quantum yield (in ClCCl): 0.31

SMILES: O=C1OC(=O)c2ccc(N(c3ccccc3)c3ccc4ccccc4c3)c3cccc1c23
- photoluminescence quantum yield (in C1CCOC1): 0.0003
- photoluminescence quantum yield (in CCCCCC): 0.335
- photoluminescence quantum yield (in c1ccccc1): 0.0162

SMILES: O=P1(c2ccccc2)C(c2ccccc2)=Cc2cc3ccccc3cc21 (stereo not given)
- photoluminescence quantum yield (in ClCCl): 0.37

SMILES: c1ccc2c(c1)oc1nc3oc4ccc(-n5c6ccccc6c6ccccc65)cc4c3cc12
- photoluminescence quantum yield (in ClC(Cl)Cl): 0.074

SMILES: CCCCC(CC)Cn1c2cc(C#N)ccc2c2ccc(C#Cc3ccc4ccc5c(C#Cc6ccc7c8ccc(C#N)cc8n(CC(CC)CCCC)c7c6)cc(C#Cc6ccc7c8ccc(C#N)cc8n(CC(CC)CCCC)c7c6)c6ccc3c4c56)cc21 (stereo not given)
- photoluminescence quantum yield (in ClCCl): 0.64

SMILES: CCCCCCc1ccc2c3c(ccc2c1)O[B-](c1ccccc1)(c1ccccc1)[N+](c1ccc([N+]2=Cc4c(ccc5cc(CCCCCC)ccc45)O[B-]2(c2ccccc2)c2ccccc2)cc1)=C3
- photoluminescence quantum yield (in C1CCOC1): 0.32
- photoluminescence quantum yield (in CC#N): 0.27
- photoluminescence quantum yield (in Cc1ccccc1): 0.35
- photoluminescence quantum yield (in ClCCl): 0.47

SMILES: CN(C)c1cc(-c2ccc(C#Cc3ccncc3)cc2)cc2ccccc12
- photoluminescence quantum yield (in ClCCl): 0.83

SMILES: CCOC(=O)CN(CC(=O)OCC)c1ccc(-c2cc(-c3ccccn3)nc(-c3ccccn3)c2)cc1
- photoluminescence quantum yield (in CC#N): 0.37
- photoluminescence quantum yield (in CCOC(C)=O): 0.48
- photoluminescence quantum yield (in CN(C)C=O): 0.31
- photoluminescence quantum yield (in CS(C)=O): 0.34
- photoluminescence quantum yield (in c1ccccc1): 0.5

SMILES: N#Cc1ccc(-c2ccc(C3=CCCCC3)s2)s1
- photoluminescence quantum yield (in CCO): 0.06

SMILES: COc1ccc(C2=CC(c3ccc(OC)cc3)=[O+][B-](C(C)=O)(C(C)=O)O2)cc1
- photoluminescence quantum yield (in CC#N): 0.7
- photoluminescence quantum yield (in ClC(Cl)(Cl)Cl): 1

SMILES: O=[N+]([O-])c1ccc(C#Cc2ccc3ccc(C#Cc4ccc([N+](=O)[O-])cc4)cc3c2)cc1
- photoluminescence quantum yield (in ClCCl): 0.007

SMILES: CC(C)[Si](C#Cc1ccc(-c2c3cccc4c5cccc6c(-c7ccc(C#C[Si](C(C)C)(C(C)C)C(C)C)cc7)c7cccc8c9cccc2c9c(c34)c(c65)c78)cc1)(C(C)C)C(C)C
- photoluminescence quantum yield (in Cc1ccccc1): 0.38

SMILES: O=C(c1ccc(N2c3ccccc3Oc3ccccc32)cc1)c1cccc(C(=O)c2ccc(N3c4ccccc4Oc4ccccc43)cc2)c1
- photoluminescence quantum yield (in Cc1ccccc1): 0.36
- photoluminescence quantum yield (in c1cc(-c2cccc(-n3c4ccccc4c4ccccc43)c2)cc(-n2c3ccccc3c3ccccc32)c1): 0.71

SMILES: c1ccc(-c2cc(-c3nnc(-c4ccc(N5c6ccccc6Oc6ccccc65)cc4)o3)c(-c3ccccc3)c(-c3ccccc3)c2-c2ccccc2)cc1
- photoluminescence quantum yield (in Cc1ccccc1): 0.264
- photoluminescence quantum yield (in c1ccc(-n2c(-c3c(-n4c5ccccc5c5ccccc54)cccc3-n3c4ccccc4c4ccccc43)nc3ccccc32)cc1): 0.93

SMILES: COc1nc(Nc2ccc3c4cccc5cccc(c6cccc2c63)c54)nc(OC)n1
- photoluminescence quantum yield (in C1COCCO1): 0.51
- photoluminescence quantum yield (in CC#N): 0.43
- photoluminescence quantum yield (in CCCCOCCCC): 0.46
- photoluminescence quantum yield (in CCOC(C)=O): 0.47

SMILES: Cc1ccc(-c2ccc(/C=C/c3ccccc3)cn2)nc1
- photoluminescence quantum yield (in CC#N): 0.67

Continued, values first:

- photoluminescence quantum yield (in C1CCCCC1): 0.84
- photoluminescence quantum yield (in CC#N): 0.85
- photoluminescence quantum yield (in CC(C)O): 0.81
- photoluminescence quantum yield (in CO): 0.92
- photoluminescence quantum yield (in CS(C)=O): 0.9
- photoluminescence quantum yield (in ClC(Cl)Cl): 0.89
- photoluminescence quantum yield (in c1ccccc1): 0.98
SMILES: CN(C)C(=O)c1ccc(-c2nc3ccc(N(C)C)cc3s2)cc1

- photoluminescence quantum yield (in ClCCl): 0.47
SMILES: O=C1c2ccccc2C2=Cc3cccc[n+]3[B-](F)(F)N12

- photoluminescence quantum yield (in C1CCOC1): 0.42
SMILES: N#Cc1c(N2CCCCC2)cc(-c2cccc3ccccc23)c2c1CCc1ccccc1-2

- photoluminescence quantum yield (in ClC(Cl)Cl): 0.61
SMILES: N#CC1=CC(C#Cc2ccccc2)=CC(C#N)=P1(c1ccccc1)c1ccccc1

- photoluminescence quantum yield (in CC#N): 0.81
SMILES: COc1cc(C#Cc2ccccc2)c(C#Cc2ccccc2)cc1OC

- photoluminescence quantum yield (in ClC(Cl)Cl): 0.14
SMILES: N#Cc1cc2ccc3cc(C#N)c4ccccc4c3c2c2ccccc12

- photoluminescence quantum yield (in ClCCl): 0.4
SMILES: CN(C)c1ccc(/C=C/c2cc(/C=C/c3ccc(N(C)C)cc3)ncn2)cc1

- photoluminescence quantum yield (in C1CCCCC1): 0.47
- photoluminescence quantum yield (in CC#N): 0.5
- photoluminescence quantum yield (in ClCCl): 0.57
SMILES: c1ccc2c(-c3ccc4sc5ccc(-c6c7ccccc7cc7ccccc67)cc5c4c3)c3ccccc3cc2c1

- photoluminescence quantum yield (in C1CCOC1): 0.03
SMILES: Cc1cc(C2=C(c3cc(C)sc3C)P(=O)(c3ccccc3)c3ccccc32)c(C)s1 (stereo not given)

- photoluminescence quantum yield (in CC1CCCO1): 0.52
SMILES: O=c1cc2cc(O)c3c(O)ccc4ccc(o1)c2c43

- photoluminescence quantum yield (in ClCCl): 0.07
SMILES: Oc1ccc2ccccc2c1-c1nc2c(c3c1-c1ccccc1CC3)-c1ccccc1CC2

- photoluminescence quantum yield (in ClC(Cl)Cl): 0.1
SMILES: Cc1ccc(-c2oc3cccc4c5c(-c6ccc(C)cc6)c(=N)oc6cccc(c2c34)c65)cc1

- photoluminescence quantum yield (in C1CCOC1): 0.45
SMILES: C[Si](C)(C)C#CC1=CC2=c3cc(C#C[Si](C)(C)C)c4nc(C(F)(F)C(F)(F)C(F)(F)F)nc5c(C#C[Si](C)(C)C)cc(c3c54)C3=CC(C#C[Si](C)(C)C)=C4N=C(C(F)(F)C(F)(F)C(F)(F)F)N=C1C4C32 (stereo not given)

- photoluminescence quantum yield (in ClCCl): 0.58
SMILES: C1=Cc2ccc(N(c3ccccc3)c3cccc4ccccc34)cc2C2(c3cc(N(c4ccccc4)c4cccc5ccccc45)ccc31)c1ccccc1-c1ccccc12

- photoluminescence quantum yield (in C1CCOC1): 0.7
SMILES: CCCCCCCCCc1c2ccccc2cc2c1oc1c3c(c4ccccc4c12)-c1c(c2oc4cc5ccccc5cc4c2c2ccccc12)OCO3

- photoluminescence quantum yield (in ClCCl): 0.82
- photoluminescence quantum yield (in c1cc(-n2c3ccccc3c3ccccc32)cc(-n2c3ccccc3c3ccccc32)c1): 0.86
SMILES: c1ccc(N(c2ccccc2)c2ccc(-c3ccc4c(c3)C3(c5cc(-c6ccc(N(c7ccccc7)c7ccccc7)cc6)ccc5-4)c4ccccc4N(c4ccccc4)c4ccccc43)cc2)cc1

- photoluminescence quantum yield (in C1CCCCC1): 0.43
- photoluminescence quantum yield (in C1COCCO1): 0.53
- photoluminescence quantum yield (in CC#N): 0.39
- photoluminescence quantum yield (in CC(C)O): 0.57
- photoluminescence quantum yield (in CCCCCC): 0.4
- photoluminescence quantum yield (in ClC(Cl)Cl): 0.43
- photoluminescence quantum yield (in c1ccccc1): 0.39
SMILES: CC1(C)Cc2c(c3ccccc3c3nc4c(nc23)c2c(c3ccccc34)OC(C)(C)C2)O1

- photoluminescence quantum yield (in C1CCCCC1): 0.699
- photoluminescence quantum yield (in CCOC(C)=O): 0.627
- photoluminescence quantum yield (in CN(C)C=O): 0.483
- photoluminescence quantum yield (in CO): 0.43
- photoluminescence quantum yield (in ClCCl): 0.673
SMILES: CCN(CC)c1ccc2c(c1)oc(=O)c1c(C)nc3c(c(-c4ccccc4)nn3C)c12

- photoluminescence quantum yield (in ClCCl): 0.01
SMILES: C(=C\c1ccncn1)/c1ccc(-c2ccco2)cc1

- photoluminescence quantum yield (in CC#N): 0.3
SMILES: CCOC(=O)c1c2c3c(ccc([N+](=O)[O-])c3c3cc4c(cc13)[Si](C)(C)O[Si]4(C)C)N(C)C2=O

- photoluminescence quantum yield (in ClC(Cl)Cl): 0.04
SMILES: FC(F)(F)c1ccc(-c2ncc3ccccn23)cc1
